Patent US20050058745A1, “Use of Labiatae herb preparations for extending the flavor shelf life of malt beverages” (priority 2003, published 2005)

Legend:
[1] = DPPH radical scavenging of highly hopped beer during aging at 40° C.; format: physicochemical; conditions: for effect on DPPH numbers: beers not treated with air; for effect on DPPH number: beers treated with air
Description: The bottle dosing methods used were the same as those described in Example 1. The following samples were made: • 1. 20 ppm Carnosic Acid • 2. 20 ppm Carnosic Acid plus Air • 3. 20 ppm Rosmarinic Acid • 4. 20 ppm Rosmarinic Acid plus Air • 5. 10 ppm Carnosic Acid+10 ppm Rosmarinic Acid • 6. 10 ppm Carnosic Acid+10 ppm Rosmarinic Acid+Air • 7. […] No Additions. Treatments 1 through 8 were put in a temperature regulated room set at 40° C. and maintained at ±1° C. At intervals of Zero time, 3 days, 7 days, 14 days, and 21 days, samples were withdrawn and Redox Potentials were measured by the method outlined in example 4. Color measurements were made using the L, a, b system on a Minolta Spectrophotometer model […], chroma and hue angle color measure units were recorded. DPPH radical scavenging numbers were measured using the following method. A de-ionized-H2O/EtOH buffer solution was prepared by dissolving 250 mg sodium citrate dihydrate and 10 g of absolute ethanol in 250 mL of deionized water. The solution was then titrated with 0.1 N Citric acid (6.404 g/L anhydrous citric acid) a drop at a time to reach a pH of between 4.35 and 4.5. To perform the test, about 0.04 g of DPPH was weighed to the nearest 0.1 mg in a 100 mL volumetric, recording the exact weight of DPPH. The DPPH was dissolved in methanol and methanol was added to bring the volume to the 100 mL mark. The solution was sonicated to facilitate dissolution. The beers to be measured were opened and 12 mL of each was poured into separate 15 mL centrifuge tubes, making sure that the volumes in all tubes were equal. The analyses were done in triplicate for each beer. An extra beer sample served as a spectrophotometer blank. The beer was degassed by centrifuging it for 15 min at 6,000 rpm. Into each of two 25 mL flasks was pipeted 5 mL of the pH 4.5 water-ethanol buffer. The spectrophotometer wavelength was set to 531 nm and a buffered water blank was zeroed. 1.0 mL of DPPH solution was added to the water buffer, which was swirled at the same time a timer was started. Just before 10 minutes had elapsed, the sample was transferred to a cuvette and the absorbance (ABL) was measured. The analysis was duplicated with another buffer. For accuracy it is necessary that great care be taken to add exactly 1 mL reagent. It is also important to swirl (mix) the samples consistently as the assay is sensitive to oxygen and to the amount of reagent used. Degassed beer was used to obtain a baseline at 531 nm. After centrifugation 5 mL of the beer was transferred into the appropriate labeled 25 mL flask. 1.0 mL of DPPH solution was added, the solution was swirled and the timer was started. The Absorbance ([…]) of the beer sample was recorded. This process was repeated for all samples. To eliminate any possible prejudice in order of analysis, samples were analyzed randomly. The following formula was used to calculate the amount of DPPH which reacts with 5 mL of beer: μmol DPPH=((1-[…]/ABL)×(g DPPH/394))×10^6

[2] = Sensory panel staling scaling of bottled standard American lager; conditions: 10 ppm (RA/CA: 5 ppm CA + 5 ppm RA)
Description: A standard American lager and a light lager were purchased commercially. The treatment bottles were opened, dosed, fobbed, crowned and inverted. The control bottles were opened, crowned and inverted. Dosing was performed as follows. One gram of pure antioxidant (corrected for actual purity) was dissolved in 100 mL ethanol and sonicated to make the antioxidant solutions of 1 weight/volume %. The volumes shown in Table 16 show the amount of the antioxidant solutions added to obtain a total of 10 ppm carnosic acid and/or rosmarinic acid in the final beverage formulations.
The sensory data were taken in the following manner. Each treatment sample was presented to the panelists one time each in two different sessions each at a different amount of aging time (5 vs. 10 days). Panelists rated the beers on a scale of 0-10, with 0 being fresh and 10 being most stale. Since the output of the panel as a whole was desired, and not any one individual panelist, the means of each treatment sample in each replicate groups were calculated and tabulated as in Table 17. Samples spiked with known amounts of off-flavors characteristic of the aged standard American lager were used as reference beers. This characterization was done in a separate descriptive session. The characteristic off-flavors in the pilot brewery beer were papery and leathery, and these were each spiked into fresh control beer at 0.75 and 1.5 times the typical flavor threshold.
Statistical analysis consisted of doing paired t-Tests on the treatment sample vs. the aged control sample (Table 18). One-tailed tests were used that probed the question whether the staling values of one treatment were lower than that of the other (e.g treatment vs. control). Confidence levels were reported along with p values.

[3] = Phenylacetaldehyde in headspace of aged beer; format: physicochemical; conditions: for Phenylacetaldehyde in the headspace of aged beer: 20 ppm (RA + CA: 10 ppm each); for effect on formation of phenylacetaldehyde and 3-methylbutanal: aged beer, 40° C.
Description: The highly hopped beer from example 2 was treated with solutions of carnosic acid in ethanol, rosmarinic acid in ethanol or a mixture of carnosic acid and rosmarinic acid in ethanol as done previously. […] The bottles were fobbed to exclude air and crowned. • 3. “20 ppm CA+air” in which bottles were opened and 20 ppm CA added as above. These bottles received two puffs of air in the remaining headspace from a 25 mL bulb. They were crowned without fobbing • 4. “20 ppm RA” in which bottles were opened and 20 ppm rosmarinic acid added from a 2% solution. The bottles were fobbed and crowned. • 5. “20 ppm RA+air” which was done as in No. 4, with 20 ppm RA added. These bottles received the two puffs of air and were crowned without fobbing. • 6. “10 ppm RA+10 ppm CA” in which bottles were opened and 10 ppm each of carnosic and rosmarinic acids were added from pure solutions (178 μL of 2% solution per 12 oz bottle). Bottles were fobbed and crowned. • 7. “10 ppm RA+10 ppm CA+air” in which 10 ppm each of RA and CA was added. This treatment received two puffs of air and was not fobbed before closing. • 8. “Control+air” in which bottles were opened, given two puffs of air and crowned without fobbing. • 9. “Control” in which bottles were opened, fobbed and crowned. Treatments 2 through 9 were stored in a 40° C. hot room. At various times, bottles were opened and samples analyzed for phenylacetaldehyde and 3-methylbutanal by the method of “[…], et al. The results are shown in Table 19.

[4] = 0 days at 40° C., + Air, 20 ppm (RA + CA: 10 ppm each)
[5] = 0 days at 40° C., no air, 20 ppm (CA + RA: 10 ppm each)
[6] = 3 days at 40° C., + Air, 20 ppm (RA + CA: 10 ppm each)
[7] = 3 days at 40° C., no air, 20 ppm (CA + RA: 10 ppm each)
[8] = 7 days at 40° C., + Air, 20 ppm (RA + CA: 10 ppm each)
[9] = 7 days at 40° C., no air, 20 ppm (CA + RA: 10 ppm each)
[10] = 14 days at 40° C., + Air, 20 ppm (RA + CA: 10 ppm each)
[11] = 14 days at 40° C., no air, 20 ppm (CA + RA: 10 ppm each)
[12] = 21 days at 40° C., + Air, 20 ppm (RA + CA: 10 ppm each)
[13] = 21 days at 40° C., no air, 20 ppm (CA + RA: 10 ppm each)

CC(C)c1cc2c(c(O)c1O)[C@@]1(C(=O)O)CCCC(C)(C)[C@@H]1CC2 [CA, carnosic acid]
DPPH Number [1, 4]: 53.3 μmol DPPH | DPPH Number [1, 5]: 52.2 μmol DPPH | DPPH Number [1, 6]: 67.2 μmol DPPH | DPPH Number [1, 7]: 69.8 μmol DPPH | DPPH Number [1, 8]: 55.6 μmol DPPH | DPPH Number [1, 9]: 64.7 μmol DPPH | DPPH Number [1, 10]: 61.7 μmol DPPH | DPPH Number [1, 11]: 64.4 μmol DPPH | DPPH Number [1, 12]: 56.5 μmol DPPH | DPPH Number [1, 13]: 60.5 μmol DPPH | effect on DPPH numbers [1]: Neither CA nor RA has much impact on DPPH numbers | effect on DPPH number [1]: preserves the DPPH number in beers that have been treated with air | Panelist staling average, Day 5 Average (0 fresh, 10 most stale) ([2]; Aged): 3.00 | Panelist staling average, Day 10 Average (0 fresh, 10 most stale) ([2]; Aged): 4.375 | Panelist staling average, Day 5 Average (0 fresh, 10 most stale) ([2]; Fresh): 2.89 | Panelist staling average, Day 10 Average (0 fresh, 10 most stale) ([2]; Fresh): 2.25 | Phenylacetaldehyde in the headspace of aged beer ([3]; Day 0, 40° C., + air): 30.49 Parts per million | Phenylacetaldehyde in the headspace of aged beer ([3]; Day 0, 40° C., no air): 32.76 Parts per million | Phenylacetaldehyde in the headspace of aged beer ([3]; Day 3, 40° C., + air): 42.05 Parts per million | Phenylacetaldehyde in the headspace of aged beer ([3]; Day 3, 40° C., no air): 46.34 Parts per million | Phenylacetaldehyde in the headspace of aged beer ([3]; Day 7, 40° C., + air): 63.82 Parts per million | Phenylacetaldehyde in the headspace of aged beer ([3]; Day 7, 40° C., no air): 57.39 Parts per million | Phenylacetaldehyde in the headspace of aged beer ([3]; Day 14, 40° C., + air): 25.74 Parts per million | Phenylacetaldehyde in the headspace of aged beer ([3]; Day 14, 40° C., no air): 24.75 Parts per million | Phenylacetaldehyde in the headspace of aged beer ([3]; Day 21, 40° C., + air): 88.86 Parts per million | Phenylacetaldehyde in the headspace of aged beer ([3]; Day 21, 40° C., no air): 52.94 Parts per million | effect on formation of phenylacetaldehyde and 3-methylbutanal [3]: dramatic effect in decreasing the formation of these off-flavor compounds

O=C(/C=C/c1ccc(O)c(O)c1)O[C@H](Cc1ccc(O)c(O)c1)C(=O)O [RA, rosmarinic acid]
DPPH Number [1, 4]: 49.9 μmol DPPH | DPPH Number [1, 5]: 51.8 μmol DPPH | DPPH Number [1, 6]: 67.1 μmol DPPH | DPPH Number [1, 7]: 66.3 μmol DPPH | DPPH Number [1, 8]: 57.7 μmol DPPH | DPPH Number [1, 9]: 58.7 μmol DPPH | DPPH Number [1, 10]: 56.3 μmol DPPH | DPPH Number [1, 11]: 63.7 μmol DPPH | DPPH Number [1, 12]: 50.5 μmol DPPH | DPPH Number [1, 13]: 57.5 μmol DPPH | effect on DPPH numbers [1]: Neither CA nor RA has much impact on DPPH numbers | effect on DPPH number [1]: preserves the DPPH number in beers that have been treated with air | Panelist staling average, Day 5 Average (0 fresh, 10 most stale) ([2]; Aged): 3.22 | Panelist staling average, Day 10 Average (0 fresh, 10 most stale) ([2]; Aged): 2.75 | Panelist staling average, Day 5 Average (0 fresh, 10 most stale) ([2]; Fresh): 0.78 | Panelist staling average, Day 10 Average (0 fresh, 10 most stale) ([2]; Fresh): 2.5 | Phenylacetaldehyde in the headspace of aged beer ([3]; Day 0, 40° C., + air): 50.16 Parts per million | Phenylacetaldehyde in the headspace of aged beer ([3]; Day 0, 40° C., no air): 43.6 Parts per million | Phenylacetaldehyde in the headspace of aged beer ([3]; Day 3, 40° C., + air): 48.83 Parts per million | Phenylacetaldehyde in the headspace of aged beer ([3]; Day 3, 40° C., no air): 45.83 Parts per million | Phenylacetaldehyde in the headspace of aged beer ([3]; Day 7, 40° C., + air): 66.68 Parts per million | Phenylacetaldehyde in the headspace of aged beer ([3]; Day 7, 40° C., no air): 46.01 Parts per million | Phenylacetaldehyde in the headspace of aged beer ([3]; Day 14, 40° C., + air): 55.65 Parts per million | Phenylacetaldehyde in the headspace of aged beer ([3]; Day 14, 40° C., no air): 52.71 Parts per million | Phenylacetaldehyde in the headspace of aged beer ([3]; Day 21, 40° C., + air): 68.89 Parts per million | Phenylacetaldehyde in the headspace of aged beer ([3]; Day 21, 40° C., no air): 52.14 Parts per million | effect on formation of phenylacetaldehyde and 3-methylbutanal [3]: dramatic effect in decreasing the formation of these off-flavor compounds
